Test results published in patent EP4803147A2.
Read-outs that look alike come from different tables or passages of the source.

CC1(C)COC(=O)[C@@H]2CCCN(N2)C(=O)[C@@H](NC(=O)OC(C)(C)C)Cc2nc(cs2)-c2ccc3[nH]c(I)c(c3c2)C1
ring closure, yield of all isomers (from CC(C)(CO)Cc1c(I)[nH]c2ccc(-c3csc(C[C@H](NC(=O)OC(C)(C)C)C(=O)N4CCC[C@@H](C(=O)O)N4)n3)cc12, ester bond, EDCI/HOBt/DIPEA, DCM, 17.57 mM, 25.0 °C, 16.0 h): 45.9%

CCn1c(-c2cccnc2[C@H](C)OC)c2c3cc(ccc31)-c1csc(n1)[C@@H](OCCN(C)C)[C@H](NC(=O)OC(C)(C)C)C(=O)N1CCC[C@H](N1)C(=O)OCC(C)(C)C2
ring closure, yield of all isomers (from CCn1c(-c2cccnc2[C@H](C)OC)c(CC(C)(C)COC(=O)[C@@H]2CCCN(C(=O)[C@@H](NC(=O)OC(C)(C)C)[C@H](OCCN(C)C)c3nc(Br)cs3)N2)c2cc(B3OC(C)(C)C(C)(C)O3)ccc21, cc_pd bond, Pd(dtbpf)Cl2, K3PO4, toluene, 57.0 mM, 60.0 °C, 4.0 h): 50%

CCn1c(-c2cccnc2[C@H](C)OC)c2c3cc(ccc31)C1=CC(O[Si](c3ccccc3)(c3ccccc3)C(C)(C)C)CN(C1)C[C@H](NC(=O)OC(C)(C)C)C(=O)N1CCC[C@H](N1)C(=O)OCC(C)(C)C2 (some centres unmarked)
ring closure, yield of all isomers (from CCn1c(-c2cccnc2[C@H](C)OC)c(CC(C)(C)COC(=O)[C@@H]2CCCN(C(=O)[C@H](CN3CC(Br)=CC(O[Si](c4ccccc4)(c4ccccc4)C(C)(C)C)C3)NC(=O)OC(C)(C)C)N2)c2cc(B3OC(C)(C)C(C)(C)O3)ccc21, cc_pd bond, Pd(dppf)Cl2, K2CO3, toluene, 20.0 mM, 65.0 °C, 2.0 h): 42%

CCn1c(-c2cc(N3CCN(C(=O)OCc4ccccc4)CC3)cnc2[C@H](C)OC)c2c3cc(ccc31)-c1csc(n1)C[C@H](NC(=O)OC(C)(C)C)C(=O)N1CCC[C@H](N1)C(=O)OCC(C)(C)C2
ring closure, yield of all isomers (from CCn1c(-c2cc(N3CCN(C(=O)OCc4ccccc4)CC3)cnc2[C@H](C)OC)c(CC(C)(C)CO)c2cc(-c3csc(C[C@H](NC(=O)OC(C)(C)C)C(=O)N4CCC[C@@H](C(=O)O)N4)n3)ccc21, ester bond, EDCI/HOBt/DIPEA, MeCN, 10.34 mM, 25.0 °C, 16.0 h): 54.8%

CCO[C@@H]1c2nc(cs2)-c2ccc3c(c2)c(c(-c2cc(C4=CC5COCC(C4)N5C(=O)OCC4c5ccccc5-c5ccccc54)cnc2[C@H](C)OC)n3CC)CC(C)(C)COC(=O)[C@@H]2CCCN(N2)C(=O)[C@H]1NC(=O)OC(C)(C)C
ring closure, yield of all isomers (from CCO[C@H](c1nc(Br)cs1)[C@H](NC(=O)OC(C)(C)C)C(=O)N1CCC[C@@H](C(=O)OCC(C)(C)Cc2c(-c3cc(C4=CC5COCC(C4)N5C(=O)OCC4c5ccccc5-c5ccccc54)cnc3[C@H](C)OC)n(CC)c3ccc(B4OC(C)(C)C(C)(C)O4)cc23)N1, cc_pd bond, Pd(dppf)Cl2.DCM, toluene, 205.0 mM, 80.0 °C, 3.0 h): 49%

CCn1c(-c2cccnc2[C@H](C)OC)c2c3cc(ccc31)-c1csc(n1)C[C@H](NC(=O)OC(C)(C)C)C(=O)N1CCC[C@H](N1)C(=O)OCC(C)(C)C2
ring closure, yield of all isomers (from CCn1c(-c2cccnc2[C@H](C)OC)c(CC(C)(C)CO)c2cc(-c3csc(C[C@H](NC(=O)OC(C)(C)C)C(=O)N4CCC[C@@H](C(=O)O)N4)n3)ccc21, ester bond, EDCI/HOBt/DIPEA, DCM, 12.65 mM, 25.0 °C, 16.0 h): 81%

CCO[C@@H]1c2nc(cs2)-c2ccc3c(c2)c(c(-c2cc(N4CCN(C(=O)OCc5ccccc5)CC4)cnc2[C@H](C)OC)n3CCOC(C)C)CC(C)(C)COC(=O)[C@@H]2CCCN(N2)C(=O)[C@H]1NC(=O)OC(C)(C)C
ring closure, yield of all isomers (from CCO[C@H](c1nc(Br)cs1)[C@H](NC(=O)OC(C)(C)C)C(=O)N1CCC[C@@H](C(=O)OCC(C)(C)Cc2c(-c3cc(N4CCN(C(=O)OCc5ccccc5)CC4)cnc3[C@H](C)OC)n(CCOC(C)C)c3ccc(B4OC(C)(C)C(C)(C)O4)cc23)N1, cc_pd bond, Pd(dtbpf)Cl2, K3PO4, toluene, 16.0 mM, 65.0 °C, 2.0 h): 44%

CCn1c(-c2cccnc2[C@H](C)OC)c2c3cc(ccc31)-c1csc(n1)[C@@H](OCC1=CCN(C(=O)OCc3ccccc3)CC1)[C@H](NC(=O)OC(C)(C)C)C(=O)N1CCC[C@H](N1)C(=O)OCC(C)(C)C2
ring closure, yield of all isomers (from CCn1c(-c2cccnc2[C@H](C)OC)c(CC(C)(C)COC(=O)[C@@H]2CCCN(C(=O)[C@@H](NC(=O)OC(C)(C)C)[C@H](OCC3=CCN(C(=O)OCc4ccccc4)CC3)c3nc(Br)cs3)N2)c2cc(B3OC(C)(C)C(C)(C)O3)ccc21, cc_pd bond, Pd(dtbpf)Cl2, K3PO4, toluene, 60.0 °C, 2.0 h): 32%

CCO[C@@H]1c2nc(cs2)-c2ccc3c(c2)c(c(-c2cc(N4CCN(C(=O)OCc5ccccc5)CC4)cnc2[C@H](C)OC)n3CCOC(C)C)CC2(CC2)COC(=O)[C@@H]2CCCN(N2)C(=O)[C@H]1NC(=O)OC(C)(C)C
ring closure, yield of all isomers (from CCO[C@H](c1nc(Br)cs1)[C@H](NC(=O)OC(C)(C)C)C(=O)N1CCC[C@@H](C(=O)OCC2(Cc3c(-c4cc(N5CCN(C(=O)OCc6ccccc6)CC5)cnc4[C@H](C)OC)n(CCOC(C)C)c4ccc(B5OC(C)(C)C(C)(C)O5)cc34)CC2)N1, cc_pd bond, XPhos-Pd-G3/XPhos, K3PO4, toluene, 28.0 mM, 65.0 °C, 2.0 h): 27%

CC1(C)COC(=O)[C@@H]2CCCN(N2)C(=O)[C@@H](NC(=O)OC(C)(C)C)Cc2nc(cs2)-c2ccc3c(c2)c(c(-c2ccnc(N4CCN(C(=O)OCc5ccccc5)CC4)c2)n3C(C)(C)C#N)C1
ring closure, yield of all isomers (from CC(C)(CO)Cc1c(-c2ccnc(N3CCN(C(=O)OCc4ccccc4)CC3)c2)n(C(C)(C)C#N)c2ccc(-c3csc(C[C@H](NC(=O)OC(C)(C)C)C(=O)N4CCC[C@@H](C(=O)O)N4)n3)cc12, ester bond, EDCI/HOBT/DIPEA, DCM, 1.05 mM, 25.0 °C, 16.0 h): 52%

CCn1c(-c2cccnc2[C@H](C)OC)c2c3cc(ccc31)-c1csc(n1)[C@@H](OCC(F)F)[C@H](NC(=O)OC(C)(C)C)C(=O)N1CCC[C@H](N1)C(=O)OCC(C)(C)C2
ring closure, yield of all isomers (from CCn1c(-c2cccnc2[C@H](C)OC)c(CC(C)(C)COC(=O)[C@@H]2CCCN(C(=O)[C@@H](NC(=O)OC(C)(C)C)[C@H](OCC(F)F)c3nc(Br)cs3)N2)c2cc(B3OC(C)(C)C(C)(C)O3)ccc21, cc_pd bond, Pd(DtBPF)Cl2, K3PO4, toluene, 10.0 mM, 60.0 °C, 1.0 h): 59%

CCO[C@@H]1c2nc(cs2)-c2ccc3c(c2)c(c(-c2cc([C@@H]4C[C@H]5COC[C@@H](C4)N5C(=O)OCC4c5ccccc5-c5ccccc54)cnc2[C@H](C)OC)n3CC)CC(C)(C)COC(=O)[C@@H]2CCCN(N2)C(=O)[C@H]1NC(=O)OC(C)(C)C
ring closure, yield of all isomers (from CCO[C@H](c1nc(Br)cs1)[C@H](NC(=O)OC(C)(C)C)C(=O)N1CCC[C@@H](C(=O)OCC(C)(C)Cc2c(-c3cc([C@@H]4C[C@H]5COC[C@@H](C4)N5C(=O)OCC4c5ccccc5-c5ccccc54)cnc3[C@H](C)OC)n(CC)c3ccc(B4OC(C)(C)C(C)(C)O4)cc23)N1, cc_pd bond, Pd(DtBPF)Cl2, toluene, 10.4 mM, 80.0 °C, 3.0 h): 65%

CCn1c(-c2cccnc2[C@H](C)OC)c2c3cc(ccc31)C1=CC[C@H](COC)N(C1)C[C@H](NC(=O)OC(C)(C)C)C(=O)N1CCC[C@H](N1)C(=O)OCC(C)(C)C2
ring closure, yield of all isomers (from CCn1c(-c2cccnc2[C@H](C)OC)c(CC(C)(C)COC(=O)[C@@H]2CCCN(C(=O)[C@H](CN3CC(Br)=CC[C@@H]3COC)NC(=O)OC(C)(C)C)N2)c2cc(B3OC(C)(C)C(C)(C)O3)ccc21, cc_pd bond, Pd(dppf)Cl2, K3PO4, toluene, 116.0 mM, 70.0 °C, 3.0 h): 30%

CCn1c(-c2cccnc2[C@H](C)OC)c2c3cc(ccc31)-c1csc(n1)C(N(C)C)[C@H](NC(=O)OCC1c3ccccc3-c3ccccc31)C(=O)N1CCC[C@H](N1)C(=O)OCC(C)(C)C2 (some centres unmarked)
ring closure, yield of all isomers (from CCn1c(-c2cccnc2[C@H](C)OC)c(CC(C)(C)COC(=O)[C@@H]2CCCN(C(=O)[C@@H](NC(=O)OCC3c4ccccc4-c4ccccc43)C(c3nc(Br)cs3)N(C)C)N2)c2cc(B3OC(C)(C)C(C)(C)O3)ccc21, cc_pd bond, Pd(dtbpf)Cl2, toluene, 27.3 mM, 60.0 °C, 1.0 h): 19%

CCO[C@@H]1c2nc(cs2)-c2ccc3c(c2)c(c(-c2cccnc2[C@H](C)OC)n3CC)CC(C)(C)COC(=O)[C@@H]2CCCN(N2)C(=O)[C@H]1NC(=O)OC(C)(C)C
ring closure, yield of all isomers (from CCO[C@H](c1nc(Br)cs1)[C@H](NC(=O)OC(C)(C)C)C(=O)N1CCC[C@@H](C(=O)OCC(C)(C)Cc2c(-c3cccnc3[C@H](C)OC)n(CC)c3ccc(B4OC(C)(C)C(C)(C)O4)cc23)N1, cc_pd bond, Pd(DTBpf)Cl2/K3PO4, toluene, 26.7 mM, 60.0 °C, 1.0 h): 31%

CCO[C@@H]1c2nc(cs2)-c2ccc3c(c2)c(c(-c2cc(C4=CCN(C(=O)OCc5ccccc5)CC4)cnc2[C@H](C)OC)n3CC)CC(C)(C)COC(=O)[C@@H]2CCCN(N2)C(=O)[C@H]1NC(=O)OC(C)(C)C
ring closure, yield of all isomers (from CCO[C@H](c1nc(Br)cs1)[C@H](NC(=O)OC(C)(C)C)C(=O)N1CCC[C@@H](C(=O)OCC(C)(C)Cc2c(-c3cc(C4=CCN(C(=O)OCc5ccccc5)CC4)cnc3[C@H](C)OC)n(CC)c3ccc(B4OC(C)(C)C(C)(C)O4)cc23)N1, cc_pd bond, Pd(DtBPF)Cl2, K3PO4, toluene, 40.7 mM, 70.0 °C, 1.0 h): 39%

CO[C@@H](C)c1ncccc1-c1c2c3cc(ccc3n1CCOC1CCOCC1)-c1csc(n1)C[C@H](NC(=O)OC(C)(C)C)C(=O)N1CCC[C@H](N1)C(=O)OCC(C)(C)C2
ring closure, yield of all isomers (from CO[C@@H](C)c1ncccc1-c1c(CC(C)(C)CO)c2cc(-c3csc(C[C@H](NC(=O)OC(C)(C)C)C(=O)N4CCC[C@@H](C(=O)O)N4)n3)ccc2n1CCOC1CCOCC1, ester bond, EDCI/HOBt, DIPEA, DCM, 7.0 mM, 25.0 °C, 16.0 h): 68%
